We go through 33 molecules from patent US8614327B2 (Vertex Pharmaceuticals Incorporated, priority 2004, dated 2013).

This experiment concerns the target T1, ΔF508-CFTR (Homo sapiens, UniProt P13569, DEL508-508).
T1 construct: expressed in transfected cells
The experiment in a line: Membrane potential optical (FRET/VIPR) assay, identification of potentiator compounds. It is filed as cell-based. The settings on record: Table 3, assay not given; for % Activity: relative efficacy. An outline of the steps: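 NIH3T3 mouse fibroblasts stably expressing ΔF508-CFTR, temperature-corrected 24 h at 27° C., read on VIPR by FRET between CC2-DMPE and DiSBAC2(3). Potentiators identified in a double-addition format, first adding chloride-free (gluconate) medium with or without compound.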

Where only a bound is given, the exact number is not on record here.

T1 sequence (P13569 with tags, fused parts or gaps DEL508-508): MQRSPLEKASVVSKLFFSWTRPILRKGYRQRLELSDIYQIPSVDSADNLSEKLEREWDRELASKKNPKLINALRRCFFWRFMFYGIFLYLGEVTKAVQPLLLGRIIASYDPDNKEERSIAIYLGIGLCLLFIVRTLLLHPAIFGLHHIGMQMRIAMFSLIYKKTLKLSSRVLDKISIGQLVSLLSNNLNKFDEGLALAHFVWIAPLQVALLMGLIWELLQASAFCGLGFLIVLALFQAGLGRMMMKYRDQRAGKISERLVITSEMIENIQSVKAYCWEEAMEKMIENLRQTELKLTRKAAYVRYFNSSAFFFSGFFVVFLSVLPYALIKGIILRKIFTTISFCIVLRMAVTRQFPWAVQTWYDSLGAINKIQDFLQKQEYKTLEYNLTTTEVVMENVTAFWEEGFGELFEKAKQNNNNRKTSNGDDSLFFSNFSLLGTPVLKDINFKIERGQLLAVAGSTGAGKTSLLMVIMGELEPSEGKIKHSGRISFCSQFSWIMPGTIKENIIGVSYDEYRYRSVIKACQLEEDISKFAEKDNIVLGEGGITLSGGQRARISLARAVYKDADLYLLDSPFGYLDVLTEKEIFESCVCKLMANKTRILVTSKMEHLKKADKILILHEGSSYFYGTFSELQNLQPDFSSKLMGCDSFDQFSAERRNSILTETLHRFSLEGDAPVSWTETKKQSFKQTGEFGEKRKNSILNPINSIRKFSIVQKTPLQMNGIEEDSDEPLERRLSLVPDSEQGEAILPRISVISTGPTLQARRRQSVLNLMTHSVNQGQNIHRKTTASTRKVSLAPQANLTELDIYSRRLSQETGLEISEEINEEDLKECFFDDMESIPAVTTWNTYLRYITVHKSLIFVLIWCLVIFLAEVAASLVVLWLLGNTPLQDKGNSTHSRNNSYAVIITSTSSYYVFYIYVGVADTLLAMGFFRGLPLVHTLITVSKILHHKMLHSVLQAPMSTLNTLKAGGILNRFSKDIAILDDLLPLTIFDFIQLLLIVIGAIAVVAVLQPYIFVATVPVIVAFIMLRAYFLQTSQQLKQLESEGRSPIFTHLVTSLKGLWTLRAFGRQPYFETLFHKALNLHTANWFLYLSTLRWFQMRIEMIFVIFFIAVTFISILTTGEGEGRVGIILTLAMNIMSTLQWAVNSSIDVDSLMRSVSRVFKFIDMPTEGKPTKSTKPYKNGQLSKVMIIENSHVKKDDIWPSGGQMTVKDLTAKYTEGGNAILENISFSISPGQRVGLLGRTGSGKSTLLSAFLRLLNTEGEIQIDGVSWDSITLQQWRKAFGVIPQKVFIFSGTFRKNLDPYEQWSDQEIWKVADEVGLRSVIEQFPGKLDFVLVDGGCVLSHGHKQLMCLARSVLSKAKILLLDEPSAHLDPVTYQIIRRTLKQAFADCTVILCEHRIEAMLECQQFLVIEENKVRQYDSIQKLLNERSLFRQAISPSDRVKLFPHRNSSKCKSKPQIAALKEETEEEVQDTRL

With `CCc1cccc(CC)c1NC(=O)c1c[nH]c2ccccc2c1=O` [Compound 325, N-(2,6-diethylphenyl)-4-oxo-1H-quinoline-3-carboxamide], the EC50 is under 10 µM and the “% Activity” value is on record as “++ (between 25% to 100%)”.

For `CS(=O)(=O)c1ccc(-c2ccccc2NC(=O)c2c[nH]c3ccccc3c2=O)cc1` [Compound 326, N-[2-(4-methylsulfonylphenyl)phenyl]-4-oxo-1H-quinoline-3-carboxamide], the EC50 was 10 to 25 µM and the “% Activity” value is given as “++ (between 25% to 100%)”.

For `CCOc1ccccc1-c1cc2cc[nH]c2cc1NC(=O)c1c[nH]c2ccccc2c1=O` [Compound 327, N-[5-(2-ethoxyphenyl)-1H-indol-6-yl]-4-oxo-1H-quinoline-3-carboxamide], the EC50 is under 10 µM and the “% Activity” value was “++ (between 25% to 100%)”.

For the molecule `CC(=O)c1cccc(NC(=O)c2c[nH]c3ccccc3c2=O)c1` [Compound 328, N-(3-acetylphenyl)-4-oxo-1H-quinoline-3-carboxamide], the EC50 was in the range of 25 to 60 µM and the “% Activity” value is reported as “+ (<25%)”.

On to `Cc1ccccc1-c1nc2cc(NC(=O)c3c[nH]c4ccccc4c3=O)ccc2o1` [Compound 329, N-[2-(o-tolyl)benzooxazol-5-yl]-4-oxo-1H-quinoline-3-carboxamide], for which the concentration for a half-maximal effect (EC50) is 10 to 25 µM and the “% Activity” value is “++ (between 25% to 100%)”.

As for `O=C(Nc1ccccc1Cl)c1c[nH]c2ccccc2c1=O` [Compound 330, N-(2-chlorophenyl)-4-oxo-1H-quinoline-3-carboxamide], the EC50 was under 10 µM and the “% Activity” value is given as “++ (between 25% to 100%)”.

In the case of `NC(=O)c1ccccc1NC(=O)c1c[nH]c2ccccc2c1=O` [Compound 331, N-(2-carbamoylphenyl)-4-oxo-1H-quinoline-3-carboxamide], the half-maximal effective concentration (EC50) fell in the range of 25 to 60 µM and the “% Activity” value was “+ (<25%)”.

`C#Cc1ccc(NC(=O)c2c[nH]c3ccccc3c2=O)cc1` [Compound 332, N-(4-ethynylphenyl)-4-oxo-1H-quinoline-3-carboxamide]: the EC50 was under 10 µM and the “% Activity” value is “++ (between 25% to 100%)”.

Regarding `N#CCc1ccc(-c2ccccc2NC(=O)c2c[nH]c3ccccc3c2=O)cc1` [Compound 333, N-[2-[4-(cyanomethyl)phenyl]phenyl]-4-oxo-1H-quinoline-3-carboxamide], the “% Activity” value was “++ (between 25% to 100%)”.

For `CC(=O)N1CCC2(CCN(C(=O)OC(C)(C)C)CC2)c2ccc(NC(=O)c3c[nH]c4ccccc4c3=O)cc21` [Compound 334, 7′-[(4-oxo-1H-quinolin-3-ylcarbonyl)amino]-spiro[piperidine-4,4′(1′H)-1-acetyl-quinoline], 2′,3′-dihydro-carboxylic acid tert-butyl ester], the EC50 fell in the range of 10 to 25 µM and the “% Activity” value is given as “++ (between 25% to 100%)”.

With `Cc1ccc(C(N)=O)c(NC(=O)c2c[nH]c3ccccc3c2=O)c1` [Compound 335, N-(2-carbamoyl-5-methyl-phenyl)-4-oxo-1H-quinoline-3-carboxamide], the EC50 was 25 to 60 µM and the “% Activity” value is reported as “+ (<25%)”.

On to `CCCCc1ccccc1NC(=O)c1c[nH]c2ccccc2c1=O` [Compound 336, N-(2-butylphenyl)-4-oxo-1H-quinoline-3-carboxamide], for which the EC50 is under 10 µM and the “% Activity” value is listed as “++ (between 25% to 100%)”.

`CN(C(=O)c1c[nH]c2ccccc2c1=O)c1cc(O)c(C(C)(C)C)cc1C(C)(C)C` [Compound 337, N-(5-hydroxy-2,4-ditert-butyl-phenyl)-N-methyl-4-oxo-1H-quinoline-3-carboxamide]: the EC50 is under 10 µM and the “% Activity” value is recorded as “++ (between 25% to 100%)”.

With `Cc1c[nH]c2cccc(NC(=O)c3c[nH]c4ccccc4c3=O)c12` [Compound 338, N-(3-methyl-1H-indol-4-yl)-4-oxo-1H-quinoline-3-carboxamide], the EC50 lay in the range of 10 to 25 µM and the “% Activity” value is “++ (between 25% to 100%)”.

Turning to `N#Cc1c[nH]c2cc(NC(=O)c3c[nH]c4ccccc4c3=O)ccc12` [Compound 339, N-(3-cyano-1H-indol-6-yl)-4-oxo-1H-quinoline-3-carboxamide], the EC50 was under 10 µM and the “% Activity” value was “++ (between 25% to 100%)”.

For `CCCc1ccc(NC(=O)c2c[nH]c3ccccc3c2=O)cc1NS(C)(=O)=O` [Compound 340, N-(3-methylsulfonylamino-4-propyl-phenyl)-4-oxo-1H-quinoline-3-carboxamide], the EC50 was under 10 µM and the “% Activity” value was “++ (between 25% to 100%)”.

With `CC(C)(C)COC(=O)NCC(C)(C)c1ccc(NC(=O)c2c[nH]c3ccccc3c2=O)cc1` [Compound 341, [2-methyl-2-[4-[(4-oxo-1H-quinolin-3-yl)carbonylamino]phenyl]-propyl]aminoformic acid neopentyl ester], the concentration giving a half-maximal response (EC50) was under 10 µM and the “% Activity” value is recorded as “++ (between 25% to 100%)”.

On to `CC(C)c1ccc(-c2cc3cc[nH]c3cc2NC(=O)c2c[nH]c3ccccc3c2=O)cc1` [Compound 342, N-[5-(4-isopropylphenyl)-1H-indol-6-yl]-4-oxo-1H-quinoline-3-carboxamide], for which the EC50 is under 10 µM and the “% Activity” value is reported as “++ (between 25% to 100%)”.

For `CC(C)CNC(=O)c1cc2cc[nH]c2cc1NC(=O)c1c[nH]c2ccccc2c1=O` [Compound 343, N-[5-(Isobutylcarbamoyl)-1H-indol-6-yl]-4-oxo-1H-quinoline-3-carboxamide], the EC50 fell in the range of 10 to 25 µM and the “% Activity” value is given as “++ (between 25% to 100%)”.

In the case of `CCOc1ccccc1-c1ccccc1NC(=O)c1c[nH]c2ccccc2c1=O` [Compound 344, N-[2-(2-ethoxyphenyl)phenyl]-4-oxo-1H-quinoline-3-carboxamide], the “% Activity” value was “++ (between 25% to 100%)”.

`O=C(Nc1ccc2cc[nH]c2c1)c1cnc2ccc(F)cc2c1O` [Compound 345, 6-fluoro-4-hydroxy-N-(1H-indol-6-yl)quinoline-3-carboxamide]: the EC50 is under 10 µM and the “% Activity” value is on record as “++ (between 25% to 100%)”.

For the molecule `O=C(Nc1ccccc1)c1c[nH]c2cc(C(F)(F)F)ccc2c1=O` [Compound 346, 4-oxo-N-phenyl-7-(trifluoromethyl)-1H-quinoline-3-carboxamide], the EC50 was under 10 µM and the “% Activity” value is recorded as “++ (between 25% to 100%)”.

For the molecule `CN(C)CCNC(=O)c1ccc(-c2cc3cc[nH]c3cc2NC(=O)c2c[nH]c3ccccc3c2=O)cc1` [Compound 347, N-[5-[4-(2-dimethylaminoethylcarbamoyl)phenyl]-1H-indol-6-yl]-4-oxo-1H-quinoline-3-carboxamide], the EC50 lay within 10 to 25 µM and the “% Activity” value was “++ (between 25% to 100%)”.

Consider `CCOc1ccc(-c2ccccc2NC(=O)c2c[nH]c3ccccc3c2=O)cc1` [Compound 348, N-[2-(4-ethoxyphenyl)phenyl]-4-oxo-1H-quinoline-3-carboxamide], for which the EC50 was under 10 µM and the “% Activity” value is listed as “++ (between 25% to 100%)”.

As for `O=C(Nc1cccc2ccccc12)c1c[nH]c2ccccc2c1=O` [Compound 350, N-(1-naphthyl)-4-oxo-1H-quinoline-3-carboxamide], the concentration giving a half-maximal response (EC50) is under 10 µM and the “% Activity” value is recorded as “++ (between 25% to 100%)”.

On to `CCc1cc2cc[nH]c2cc1NC(=O)c1c[nH]c2ccccc2c1=O` [Compound 351, N-(5-ethyl-1H-indol-6-yl)-4-oxo-1H-quinoline-3-carboxamide], for which the EC50 is under 10 µM and the “% Activity” value is “++ (between 25% to 100%)”.

In the case of `CC(C)(C)OC(=O)NCCc1c[nH]c2cc(NC(=O)c3c[nH]c4ccccc4c3=O)ccc12` [Compound 352, 2-[6-[(4-oxo-1H-quinolin-3-yl)carbonylamino]-1H-indol-3-yl]ethylaminoformic acid tert-butyl ester], the EC50 was under 10 µM and the “% Activity” value is recorded as “++ (between 25% to 100%)”.

On to `CC(C)(C)OC(=O)Nc1ccc(C(C)(C)C)c(NC(=O)c2c[nH]c3ccccc3c2=O)c1` [Compound 353, [3-[(4-oxo-1H-quinolin-3-yl)carbonylamino]-4-tert-butyl-phenyl]aminoformic acid tert-butyl ester], for which the EC50 was under 10 µM and the “% Activity” value is on record as “++ (between 25% to 100%)”.

As for `CN(Cc1ccccc1NC(=O)c1c[nH]c2ccccc2c1=O)C1CCCCC1` [Compound 354, N-[2-[(cyclohexyl-methyl-amino)methyl]phenyl]-4-oxo-1H-quinoline-3-carboxamide], the EC50 is under 10 µM and the “% Activity” value is recorded as “++ (between 25% to 100%)”.

As to `COc1ccccc1-c1ccccc1NC(=O)c1c[nH]c2ccccc2c1=O` [Compound 355, N-[2-(2-methoxyphenyl)phenyl]-4-oxo-1H-quinoline-3-carboxamide], the EC50 was under 10 µM and the “% Activity” value is listed as “++ (between 25% to 100%)”.

`CCCc1ccc(NC)cc1NC(=O)c1c[nH]c2ccccc2c1=O` [Compound 356, N-(5-methylamino-2-propyl-phenyl)-4-oxo-1H-quinoline-3-carboxamide]: the EC50 is under 10 µM and the “% Activity” value is recorded as “++ (between 25% to 100%)”.

Regarding `CC(C)c1c[nH]c2cc(NC(=O)c3c[nH]c4ccccc4c3=O)ccc12` [Compound 357, N-(3-isopropyl-1H-indol-6-yl)-4-oxo-1H-quinoline-3-carboxamide], the EC50 is under 10 µM and the “% Activity” value was “++ (between 25% to 100%)”.

In the case of `O=C(Nc1ccc2cc[nH]c2c1)c1cnc2ccc(Cl)cc2c1O` [Compound 358, 6-chloro-4-hydroxy-N-(1H-indol-6-yl)quinoline-3-carboxamide], the EC50 is under 10 µM and the “% Activity” value is given as “++ (between 25% to 100%)”.
